The values that follow come from patent publication US20070238723A1, “Benzoxazinyl-amidocyclopentyl-heterocyclic modulators of chemokine receptors” (priority 2004, published 2007).

The target of this assay is T1, CCR-2 receptor (Homo sapiens, UniProt P41597).
T1 construct: the endogenous CCR-2 receptor on various cell types including monocytes, THP-1 cells; endogenous in cells; host or cells: monocytes, THP-1 cells (or unnamed eukaryotic cells expressing the cloned receptor)
Put plainly: CCR-2 binding assay (inhibition of 125I-MCP-1 binding). The settings on record: qualitative comparison among separated isomers; assay not given. As to the method:
Receptor affinity in a CCR-2 binding assay was determined by measuring inhibition of ^125I-MCP-1 to the endogenous CCR-2 receptor on various cell types including monocytes, THP-1 cells, or after heterologous expression of the cloned receptor in eukaryotic cells. The cells were suspended in binding buffer (50 mM HEPES, pH 7.2, 5 mM MgCl2, 1 mM CaCl2, and 0.50% BSA) with and added to test compound or DMSO and ^125I-MCP-1 at room temperature for 1 h to allow binding. The cells were then collected on GFB filters, washed with 25 mM HEPES buffer containing 500 mM NaCl and cell bound ^125I-MCP-1 was quantified.

Each structure is given as a SMILES string.

T1 sequence (P41597 whole entry): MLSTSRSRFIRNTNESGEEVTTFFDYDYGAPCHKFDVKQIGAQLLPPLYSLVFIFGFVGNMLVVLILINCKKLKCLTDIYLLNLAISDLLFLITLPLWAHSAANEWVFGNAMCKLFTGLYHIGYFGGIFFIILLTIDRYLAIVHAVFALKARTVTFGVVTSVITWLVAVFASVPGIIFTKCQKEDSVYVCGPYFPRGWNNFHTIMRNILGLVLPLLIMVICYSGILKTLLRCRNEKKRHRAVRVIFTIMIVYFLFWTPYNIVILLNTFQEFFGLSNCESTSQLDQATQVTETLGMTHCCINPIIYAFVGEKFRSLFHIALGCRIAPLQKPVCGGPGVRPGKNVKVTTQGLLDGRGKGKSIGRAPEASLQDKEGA

With `CCOC(=O)c1cccc(C2CCN([C@@H]3CC[C@](C(C)=O)(C(=O)N4COc5ccc(C(F)(F)F)cc5C4)C3)CC2)c1` (single isomer, unassigned) [Peak 3], the “potency relative to other stereoisomers” value is given as “best potency”.
